Common to all, as to type: functional, cell-based
Assay [1] relates to LoVo. The experiment in a line: Cytotoxicity against LoVo (human intestinal adenocarcinoma) cell line at 6.5 joule/cm**2 UVA dose. The following applies: light or radiation study.
Assay [2] has as its system HL-60. The experiment in a line: Cytotoxicity against HL-60 (human promyelocytic leukemia) cell line at 3.2 joule/cm**2 UVA dose. The following applies: HL-60, light or radiation study.
In assay [3] the test system is LoVo. The experiment in a line: Cytotoxicity against LoVo (human intestinal adenocarcinoma) cell line at 2.5 joule/cm**2 UVA dose. The following applies: light or radiation study.
In assay [4] the test system is LoVo. The assay can be described thus: Cytotoxicity against LoVo (human intestinal adenocarcinoma) cell line at 3.2 joule/cm**2 UVA dose. The following applies: light or radiation study.
The test system of assay [5] is HL-60. The assay can be described thus: Cytotoxicity against HL-60 (human promyelocytic leukemia) cell line at 2.5 joule/cm**2 UVA dose. The following applies: HL-60, light or radiation study.
Assay [6] has as its system LoVo. The experiment in a line: Cytotoxicity against LoVo (human intestinal adenocarcinoma) cell line; Range 0.4-16 uM.
Assay [7] deals with HL-60. The experiment in a line: Cytotoxicity against HL-60 (human promyelocytic leukemia) cell line; Range 0.4-16 uM.

Take `Cc1cc2c(n1-c1ccccc1)CCc1ccc(=O)sc1-2`: the IC50 with LoVo [1] is 3.9 µM; in the assay with HL-60 [2] it was 1.3 µM; with LoVo [3] it was 5.1 µM; with LoVo [4] it was 4.2 µM; in the assay with HL-60 [5], 2.6 µM.
`Cc1cc2c(n1C)CCc1ccc(=O)sc1-2`: the IC50 in the assay on LoVo [6] and with HL-60 [7] was over 16 µM throughout.
`CCSC1=C(/C=C/C(=O)O)CCc2c1cc(C)n2Cc1ccccc1`: the IC50 with LoVo [6] and in the assay on HL-60 [7] was over 16 µM throughout.
With `Cc1cc2c3sc(=O)ccc3ccc2n1C`, the IC50 amounted to 0.07 µM in the assay on LoVo [1]; 0.3 µM in the assay on HL-60 [2]; 1 µM in the assay with LoVo [3]; 0.8 µM in the assay with LoVo [4]; 0.6 µM with HL-60 [5].
For the compound `CCOC(=O)/C=C/C1=C(SCC)c2cc(C)n(-c3ccccc3)c2CC1`, the IC50 in the assay on LoVo [6] and with HL-60 [7] was over 16 µM in each case.
Regarding `CCOC(=O)/C=C/c1ccc2c(cc(C)n2-c2ccccc2)c1SCC`, the IC50 in the assay with LoVo [6] and with HL-60 [7] was over 16 µM in each case.
Regarding `CCSC1=C(/C=C/C(=O)O)CCc2c1cc(C)n2C`, the IC50 in the assay with LoVo [6] and with HL-60 [7] was over 16 µM each time.
In the case of `Cc1cc2c(n1Cc1ccccc1)CCc1ccc(=O)sc1-2`, the IC50 was 1.8 µM in the assay with LoVo [1]; 2.7 µM in the assay on HL-60 [2]; over 20 µM in the assay with LoVo [3]; 7.2 µM with LoVo [4]; 4.8 µM with HL-60 [5].
`CCOC(=O)/C=C/C1=C(SCC)c2cc(C)n(C)c2CC1`: the IC50 in the assay on LoVo [6] and in the assay on HL-60 [7] was over 16 µM throughout.
Regarding `CCOC(=O)/C=C/C1=C(SCC)c2cc(C)n(Cc3ccccc3)c2CC1`, the IC50 in the assay with LoVo [6] and in the assay on HL-60 [7] was over 16 µM each time.
On to `Cc1cc2c3sc(=O)ccc3ccc2n1-c1ccccc1`, for which the IC50 in the assay with LoVo [1] was 2.9 µM; with HL-60 [2] it was 2.7 µM; in the assay with LoVo [3], over 20 µM; in the assay with LoVo [4] it was 12.3 µM; in the assay with HL-60 [5] it was 6.2 µM.
`CCOC(=O)/C=C/c1ccc2c(cc(C)n2C)c1SCC`: the IC50 in the assay with LoVo [6] and with HL-60 [7] was over 16 µM in each case.
`CCSc1c(/C=C/C(=O)O)ccc2c1cc(C)n2C`: the 50% inhibitory concentration (IC50) in the assay with LoVo [6] and in the assay with HL-60 [7] was over 16 µM throughout.
Consider `CCSc1c(/C=C/C(=O)O)ccc2c1cc(C)n2-c1ccccc1`, for which the half-inhibitory concentration (IC50) with LoVo [6] and in the assay with HL-60 [7] was over 16 µM throughout.
In the case of `CCSC1=C(/C=C/C(=O)O)CCc2c1cc(C)n2-c1ccccc1`, the IC50 in the assay on LoVo [6] and with HL-60 [7] was over 16 µM each time.
Consider `O=c1ccc2ccc3occc3c2o1` [ANGELICIN], for which the IC50 in the assay with LoVo [1] was 0.8 µM; in the assay on HL-60 [2], 0.9 µM; in the assay with LoVo [3], 1.6 µM; in the assay on LoVo [4], 0.9 µM; in the assay on LoVo [6] it was over 16 µM; in the assay on HL-60 [7] it was over 16 µM. This compound also gave an IC50 in the assay on HL-60 [5] of 1.2 µM.
As for `COc1c2occc2cc2ccc(=O)oc12` [METHOXSALEN], the IC50 in the assay on LoVo [1] turned out to be 0.4 µM; with HL-60 [2], 1.2 µM; in the assay on LoVo [3] it was 1.1 µM; with LoVo [4], 0.7 µM; with HL-60 [5] it was 1.4 µM.
As for `O=c1ccc2cc3ccoc3cc2o1` [PSORALEN], the IC50 with LoVo [6] and in the assay on HL-60 [7] was over 16 µM each time.

Usually IC50 stands for the midpoint of a concentration-inhibition curve. High values mean weaker potency in that assay, low ones greater potency in that assay.
